According to patent US8431702B2, “Therapeutically useful substituted hydropyrido [3,2,1-ij] quinoline compounds” (Allergan, Inc., priority 2008, dated 2013):
Where two headings read alike, the source gives them in different places.

Target: T1, human S1P3 receptor (Homo sapiens, UniProt Q99500)
T1 construct: expressed in transfected cells
Test: FLIPR calcium (Fluo-4) assay for activation or block of activation of human S1P3 receptor in T24 cells
Format: cell-based
Description: The compounds of the invention are assessed for their ability to activate or block activation of the human S1P3 receptor in T24 cells stably expressing the human S1P3 receptor using the method described in paragraph [0067] of United States Patent Application Publication No. 20070232682, which published on Oct. 4, 2007, which is hereby incorporated by reference in its entirety.
Ten thousands cells/well are plated into 384-well poly-D-lysine coated plates one day prior to use. The growth media for the S1P3 receptor expressing cell line is McCoy's 5A medium supplemented with 10% charcoal-treated fetal bovine serum (FBS), 1% antibiotic-antimycotic and 400 μg/ml geneticin. On the day of the experiment, the cells are washed twice with Hank's Balanced Salt Solution supplemented with 20 mM HEPES (HBSS/Hepes buffer). The cells are then dye loaded with 2 μM Fluo-4 diluted in the HBSS/Hepes buffer with 1.25 mM Probenecid and incubated at 37° C. for 40 minutes. Extracellular dye is removed by washing the cell plates four times prior to placing the plates in the FLIPR (Fluorometric Imaging Plate Reader, Molecular Devices). Ligands are diluted in HBSS/Hepes buffer and prepared in 384-well microplates. The positive control, Sphingosine-1-phosphate (S1P), is diluted in HBSS/Hepes buffer with 4 mg/ml fatty acid free bovine serum albumin. The FLIPR transfers 12.5 μl from the ligand microplate to the cell plate and takes fluorescent measurements for 75 seconds, taking readings every second, and then for 2.5 minutes, taking readings every 10 seconds. Compounds are tested over the concentration range of 0.61 nM to 10,000 nM. Data for calcium ion (Ca^+2) responses are obtained in arbitrary fluorescence units and not translated into Ca^+2 concentrations. IC50 values (nM) are determined through a […] analysis using the Levenburg Marquardt algorithm.

[1] = T24 cells stably expressing the human S1P3 receptor, tested over 0.61 nM to 10,000 nM
[2] = T24 cells stably expressing the human S1P3 receptor, tested over 0.61 nM to 10,000 nM, read-out: S1P3 IC50

T1 sequence (Q99500 whole entry): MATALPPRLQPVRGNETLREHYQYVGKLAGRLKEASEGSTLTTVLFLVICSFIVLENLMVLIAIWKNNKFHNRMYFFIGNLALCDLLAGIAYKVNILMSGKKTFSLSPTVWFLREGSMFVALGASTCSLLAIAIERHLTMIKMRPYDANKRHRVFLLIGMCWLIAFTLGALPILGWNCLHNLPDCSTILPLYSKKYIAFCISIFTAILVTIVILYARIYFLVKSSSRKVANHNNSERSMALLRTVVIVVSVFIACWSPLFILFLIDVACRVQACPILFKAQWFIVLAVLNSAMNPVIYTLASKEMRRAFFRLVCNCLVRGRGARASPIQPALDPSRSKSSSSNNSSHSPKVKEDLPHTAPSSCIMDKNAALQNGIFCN

| Compound | S1P3 % Inhibition [1] | IC50 [2] | IC50 |
| --- | --- | --- | --- |
| CCCSC(=O)Nc1cc2c3c(c1)[C@@](C)(c1ccccc1)CCN3CC[C@@]2(C)c1ccccc1 [Compound 584, S-propyl (1R,7S)-1,7-dimethyl-1,7-diphenyl-1,2,3,5,6,7-hexahydropyrido[3,2,1-ij]quinolin-9-ylcarbamothioate] | 98% | – | 16 nM |
| O=C(NCc1ccoc1)Nc1cc2c3c(c1)C(c1ccccc1)CCN3CCC2c1ccccc1 (centres unmarked) [Compound 258, 1-(1,7-diphenyl-1,2,3,5,6,7-hexahydropyrido[3,2,1-ij]quinolin-9-yl)-3-(furan-3-ylmethyl)urea] | 100% | – | – |
| CCCCOC(=O)Nc1cc2c3c(c1)[C@](C)(c1ccc(F)cc1)CCN3CC[C@@]2(C)c1ccc(F)cc1 [Compound 672, butyl (1S,7S)-1,7-bis(4-fluorophenyl)-1,7-dimethyl-1,2,3,5,6,7-hexahydropyrido[3,2,1-ij]quinolin-9-ylcarbamate] | 89% | – | 86 nM |
| CN(C)C(=O)Nc1cc2c3c(c1)C(c1ccccc1)CCN3CCC2c1ccccc1 (centres unmarked) [Compound 405, 3-(1,7-diphenyl-1,2,3,5,6,7-hexahydropyrido[3,2,1-ij]quinolin-9-yl)-1,1-dimethylurea] | 98% | – | – |
| CCCCOC(=O)Nc1cc2c3c(c1)[C@](C)(c1ccccc1)CCN3CC[C@@]2(C)c1ccccc1 [Compound 943, Butyl (1S,7S)-1,7-dimethyl-1,7-diphenyl-1,2,3,5,6,7-hexahydropyrido[3,2,1-ij]quinolin-9-ylcarbamate] | 100% | – | 75 nM |
| C=CCNC(=O)Nc1cc2c3c(c1)C(c1ccccc1)CCN3CCC2c1ccccc1 (centres unmarked) [Compound 773, 1-allyl-3-(1,7-diphenyl-1,2,3,5,6,7-hexahydropyrido[3,2,1-ij]quinolin-9-yl)urea] | 100% | – | – |
| CSC(=O)Nc1cc2c3c(c1)[C@](C)(c1ccccc1)CCN3CC[C@@]2(C)c1ccccc1 [Compound 583, S-methyl (1S,7S)-1,7-dimethyl-1,7-diphenyl-1,2,3,5,6,7-hexahydropyrido[3,2,1-ij]quinolin-9-ylcarbamothioate] | 98% | – | 10 nM |
| O=C(Nc1cc2c3c(c1)C(c1ccccc1)CCN3CCC2c1ccccc1)OCc1ccccc1 (centres unmarked) [Compound 278, Benzyl 1,7-diphenyl-1,2,3,5,6,7-hexahydropyrido[3,2,1-ij]quinolin-9-ylcarbamate] | 101% | – | – |
| CCOC(=O)Nc1cc2c3c(c1)[C@](C)(c1ccccc1)CCN3CC[C@@]2(C)c1ccccc1 [Compound 941, Ethyl (1S,7S)-1,7-dimethyl-1,7-diphenyl-1,2,3,5,6,7-hexahydropyrido[3,2,1-ij]quinolin-9-ylcarbamate] | 100% | – | 13 nM |
| CC(C)(C)NC(=O)Nc1cc2c3c(c1)[C@@](C)(c1ccccc1)CCN3CC[C@@]2(C)c1ccccc1 [Compound 580, 1-t-butyl-3-((1R,7S)-1,7-dimethyl-1,7-diphenyl-1,2,3,5,6,7-hexahydropyrido[3,2,1-ij]quinolin-9-yl)urea] | 99% | – | 62 nM |
| C[C@@]1(c2ccccc2)CCN2CC[C@@](C)(c3ccccc3)c3cc(NC(=O)OCCF)cc1c32 [Compound 944, 2-fluoroethyl (1S,7S)-1,7-dimethyl-1,7-diphenyl-1,2,3,5,6,7-hexahydropyrido[3,2,1-ij]quinolin-9-ylcarbamate] | 100% | – | 27 nM |
| CC(C)(C)NC(=O)Nc1cc2c3c(c1)C(c1ccccc1)CCN3CCC2c1ccccc1 (centres unmarked) [Compound 148, 1-tert-butyl-3-(1,7-diphenyl-1,2,3,5,6,7-hexahydropyrido[3,2,1-ij]quinolin-9-yl)urea] | 101% | – | – |
| COC(=O)Nc1cc2c3c(c1)[C@](C)(c1ccccc1)CCN3CC[C@@]2(C)c1ccccc1 [Compound 829, methyl (1S,7S)-1,7-dimethyl-1,7-diphenyl-1,2,3,5,6,7-hexahydropyrido[3,2,1-ij]quinolin-9-ylcarbamate] | 97% | – | 7 nM |

More lines, main results first:

| S1P3 % Inhibition [1] | IC50 [2] | Compound | IC50 |
| --- | --- | --- | --- |
| 97% | – | C#CCOC(=O)Nc1cc2c3c(c1)C(c1ccccc1)CCN3CCC2c1ccccc1 (centres unmarked) [Compound 352, Prop-2-ynyl 1,7-diphenyl-1,2,3,5,6,7-hexahydropyrido[3,2,1-ij]quinolin-9-ylcarbamate] | – |
| 98% | – | CCCCOC(=O)Nc1cc2c3c(c1)C(c1cccc(F)c1)CCN3CCC2c1cccc(F)c1 (centres unmarked) [Compound 202, Butyl 1,7-bis(3-fluorophenyl)-1,2,3,5,6,7-hexahydropyrido[3,2,1-ij]quinolin-9-ylcarbamate] | – |
| 102% | – | COC(=O)Nc1cc2c3c(c1)C(c1ccccc1)CCN3CCC2c1ccccc1 (centres unmarked) [Compound 272, methyl 1,7-diphenyl-1,2,3,5,6,7-hexahydropyrido[3,2,1-ij]quinolin-9-ylcarbamate] | – |
| 98% | 8 nM | O=C(Nc1cc2c3c(c1)C(c1ccc(F)cc1)CCN3CCC2c1ccc(F)cc1)OCCF (centres unmarked) [Compound 067] | – |
| 102% | – | O=C(Nc1cc2c3c(c1)C(c1ccccc1)CCN3CCC2c1ccccc1)OCCF (centres unmarked) [Compound 095, 2-fluoroethyl 1,7-diphenyl-1,2,3,5,6,7-hexahydropyrido[3,2,1-ij]quinolin-9-ylcarbamate] | – |
| 100% | – | CC(C)COC(=O)Nc1cc2c3c(c1)C(c1ccccc1)CCN3CCC2c1ccccc1 (centres unmarked) [Compound 274, Isobutyl 1,7-diphenyl-1,2,3,5,6,7-hexahydropyrido[3,2,1-ij]quinolin-9-ylcarbamate] | – |
| 100% | 4 nM | CSC(=O)Nc1cc2c3c(c1)C(c1ccccc1)CCN3CCC2c1ccccc1 (centres unmarked) [Compound 699] | – |
| 98% | 210 nM | CCCCNC(=O)c1cc2c3c(c1)C(c1ccccc1)CCN3CCC2c1ccccc1 (centres unmarked) [Compound 481, N-butyl-1,7-diphenyl-1,2,3,5,6,7-hexahydropyrido[3,2,1-ij]quinoline-9-carboxamide] | – |
| 101% | – | CCNC(=O)Nc1cc2c3c(c1)C(c1ccccc1)CCN3CCC2c1ccccc1 (centres unmarked) [Compound 484, 1-(1,7-diphenyl-1,2,3,5,6,7-hexahydropyrido[3,2,1-ij]quinolin-9-yl)-3-ethylurea] | – |
| 100% | – | CCCOC(=O)Nc1cc2c3c(c1)C(c1ccccc1)CCN3CCC2c1ccccc1 (centres unmarked) [Compound 275, Propyl 1,7-diphenyl-1,2,3,5,6,7-hexahydropyrido[3,2,1-ij]quinolin-9-ylcarbamate] | – |
| 101% | – | CCCCOC(=O)Nc1cc2c3c(c1)C(c1ccccc1)CCN3CCC2c1ccccc1 (centres unmarked) [Compound 276, Butyl 1,7-diphenyl-1,2,3,5,6,7-hexahydropyrido[3,2,1-ij]quinolin-9-ylcarbamate] | – |
